Assay results reported in US12655139B2, “Isoxazolidines as RIPK1 inhibitors and use thereof” (SANOFI, priority 2020, dated 2026).
Structures can show the parent of a compound that is named as a salt. Where two headings read alike, the source gives them in different places.

Tested on: U937 cells
Assay: Cellular assay in U937 cells on cell death (necroptosis), TNFα/zVAD.fmk
Type: cell-based
Conditions: Homo sapiens
Text: Cellular Assay in U937 Cells to Measure the Activity of RIPK1-Inhibitors on Cell Death (Necroptosis).
Cell death was quantified in 96 well plates by determination of the amount of live cell using a CellTiter 96 AQueous reagent (Promega), a calorimetric method to measure the amount of live cells by reducing tetrazolium compound [3-(4,5-dimethylthiazol-2-yl)-5-(3-carboxymethoxyphenyl)-2-(4-sulfophenyl)-2H-tetrazolium, inner salt; MTS] into formazan. Absorbance of formazan was read at 490 nm. The inhibitory activity of the test compound was quantified in a concentration response curve (CRC) experiment. Compounds were obtained as 10 mM stock solutions and were diluted 1 to 10 volumes with DMSO to yield a 1 mM solution. From this solution 2 μl were diluted with 998 μl growth medium. 100 μl of 2 μM compound solution was further diluted sequentially with a dilution factor of 2.5 by adding 150 μl growth medium. A total of 10 concentrations were tested ranging from 10 μM to 0.26 nM or from 1 μM to 0.07 nM.
U937 cells were cultured in RPMI1640 Glutamax and 10% heat inactivated FBS. 50 μl cell suspension containing 1×10^6 cells/ml supplemented with 50 μM zVAD.fmk (Benzyloxycarbonyl-Val-Ala-Asp (OMe) fluoromethylketone) and 100 ng/ml recombinant human TNFα were dispensed in each well of a 96-well plate. 50 μl of compound dilutions (see above) were added and the cell suspension incubated overnight (18 to 24 hours) at 37° C., 5% CO2 in a humidified atmosphere (95% rH). High (no compound) and low control (no TNFα, zVAD.fmk) were tested with 7 replicates; all compound concentrations were tested in duplicates on each experimental plate.
CellTiter 96 Aqueous reagent was mixed (100 μl PMS (phenazine methosulfate) solution/2 ml MTS (3-(4,5-[…])-5-(3-carboxymethoxyphenyl)-2-(4-sulfophenyl)-2H-tetrazolium, inner salt) solution) and 20 μl were added per well. After 4 hours incubation at 37° C. (5% CO2 95% rH) optical density was measured at 490 nm on a microplate reader (Tecan Infinite M1000).
The % inhibition is expressed as percentage of the maximal inhibition value obtained in the absence of TNFα/zVAD.fmc.

[1] = U-937, Table 2, read-out: U937 IC50
[2] = U-937, Comparator table 5, read-out: U937 IC50 (uM) Mean

**Q.** `Cn1ccc(C2CCON2C(=O)C2CCN(c3nccc(C(N)=O)n3)CC2)n1` (racemic) [Ex. 002*] was tested. Which IC50 [1] did it give?
**A.** 1.83 µM

**Q.** For `NC(=O)c1ccnc(N2CCC(C(=O)N3OCCC3c3ccc4nccn4c3)CC2)n1` (racemic) [Ex. 012*], which IC50 [1] is on record?
**A.** 7.26 µM

**Q.** Which IC50 [1] does the source give for `NC(=O)c1cncc(C2CCON2C(=O)C2CCN(c3nccc(C(N)=O)n3)CC2)c1` (racemic) [Ex. 029*] here?
**A.** 2.2 µM

**Q.** With `CNC(=O)c1cncc(C2CCON2C(=O)C2CCN(c3nccc(C(N)=O)n3)CC2)c1` (racemic) [Ex. 040*] as the molecule, how does the IC50 [1] read?
**A.** > 10 µM

**Q.** How did the IC50 [1] turn out when `Cc1nnc(C2CCON2C(=O)C2CCN(c3nccc(C(N)=O)n3)CC2)s1` (racemic) [Ex. 089*] was run?
**A.** 2.16 µM

**Q.** How did the IC50 [1] turn out when `Cn1ccc(C2CCON2C(=O)C2CCN(c3cc(C#N)ncn3)CC2)n1` (racemic) [Example 006, 6-[4-[3-(1-methylpyrazol-3-yl)isoxazolidine-2-carbonyl]-1-piperidyl]pyrimidine 4-carbonitrile] was run?
**A.** 5.6 µM

**Q.** For `Cn1ccc(C2CCON2C(=O)C2CCN(c3cc(C(N)=O)ncn3)CC2)n1` (racemic) [Example 008, 6-[4-[3-(1-methylpyrazol-3-yl)isoxazolidine-2-carbonyl]-1-piperidyl] pyrimidine-4-carboxamide TFA salt], which IC50 [1] is on record?
**A.** 5.22 µM

**Q.** `CNC(=O)c1cncc(C2CCON2C(=O)C2CCN(c3cc(C(N)=O)ncn3)CC2)c1` (racemic) [Example 041] was tested. Which IC50 [1] did it give?
**A.** > 10 µM

**Q.** How did the IC50 [2] turn out when `NC(=O)c1ccnc(N2CCC(C(=O)N3OCC[C@H]3c3cc(F)cc(F)c3)CC2)n1` [E, reference compound] was run?
**A.** 0.002 µM

**Q.** `NC(=O)c1ccnc(N2CCC(C(=O)N3OCC[C@H]3c3cncnc3)CC2)n1` [Ex. 003] was tested. Which IC50 [1] did it give?
**A.** 0.29 µM

**Q.** How did the IC50 [1] turn out when `N#Cc1cncc([C@@H]2CCON2C(=O)C2CCN(c3cc(C#N)ncn3)CC2)c1` [Ex. 005] was run?
**A.** 0.115 µM

**Q.** `N#Cc1cncc([C@@H]2CCON2C(=O)C2CCN(c3cc(C#N)ccn3)CC2)c1` [Ex. 017] was tested. Which IC50 [1] did it give?
**A.** 0.343 µM

**Q.** `CC1(C(=O)N2OCC[C@H]2c2cncc(C#N)c2)CCN(c2ncc(F)c(OCC#N)n2)CC1` [Ex. 018] was tested. Which IC50 [1] did it give?
**A.** 0.0103 µM

**Q.** `NC(=O)c1ccnc(N2CCC(C(=O)N3OCCC3c3ccc(O)nc3)CC2)n1` (centres unmarked) [Ex. 022] was tested. Which IC50 [1] did it give?
**A.** > 10 µM

**Q.** `CCOC(=O)COc1nc(N2CCC(C(=O)N3OCC[C@H]3c3cncc(C#N)c3)CC2)ncc1F` [Ex. 027, Ethyl 2-[2-[4-[(3S)-3-(5-cyano-3-pyridyl)isoxazolidine-2-carbonyl]-1-piperidyl]-5-fluoro-pyrimidin-4-yl]oxyacetate] was tested. Which IC50 [1] did it give?
**A.** 0.528 µM

**Q.** With `CC(=O)Nc1cncc([C@@H]2CCON2C(=O)C2CCN(c3nccc(C(N)=O)n3)CC2)c1` [Ex. 043] as the molecule, how does the IC50 [1] read?
**A.** 2.7 µM

**Q.** Which IC50 [1] does the source give for `NC(=O)c1ccnc(N2CCC(C(=O)N3OCC[C@H]3c3cncc(N4CCCC4=O)c3)CC2)n1` [Ex. 060] here?
**A.** 7.31 µM

**Q.** How did the IC50 [1] turn out when `CC1(C(=O)N2OCC[C@H]2c2cncnc2)CCN(c2ncc(F)c(OCC#N)n2)CC1` [Ex. 062] was run?
**A.** 0.0124 µM

**Q.** How did the IC50 [1] turn out when `N#CCOc1nc(N2CCC(C(=O)N3OCC[C@H]3c3cncnc3)CC2)ncc1F` [Ex. 063] was run?
**A.** 0.0151 µM

**Q.** With `NC(=O)c1ccnc(N2CCC(C(=O)N3OCC[C@H]3c3cnccn3)CC2)n1` [Ex. 074] as the molecule, how does the IC50 [1] read?
**A.** 0.00975 µM

**Q.** `CCN1CCC(CNC(=O)c2ccnc(N3CCC(C(=O)N4OCC[C@H]4c4cncc(C#N)c4)CC3)n2)CC1` [Ex. 079] was tested. Which IC50 [1] did it give?
**A.** 1.67 µM

**Q.** For `Cc1cncc([C@@H]2CCON2C(=O)C2CCN(c3ncc(F)c(C(N)=O)n3)CC2)n1` [Ex. 082], which IC50 [1] is on record?
**A.** 0.00325 µM

**Q.** `NC(=O)c1nc(N2CCC(C(=O)N3OCC[C@H]3c3ccc(Cl)cn3)CC2)ncc1F` [Ex. 084] was tested. Which IC50 [1] did it give?
**A.** 0.0178 µM

**Q.** How did the IC50 [1] turn out when `N#Cc1cncc([C@@H]2CCON2C(=O)C2CCN(c3nccc(C(=O)NC4CNC4)n3)CC2)c1` [Ex. 086, N-(Azetidin-3-yl)-2-[4-[(3S)-3-(5-cyano-3-pyridyl)isoxazolidine-2-carbonyl]-1-piperidyl]pyrimidine-4-carboxamide TFA salt] was run?
**A.** 8.68 µM

**Q.** `NC(=O)c1cncc([C@@H]2CCON2C(=O)C2CCN(c3ncc(F)c(C(N)=O)n3)CC2)c1` [Ex. 101] was tested. Which IC50 [1] did it give?
**A.** 0.442 µM

**Q.** Which IC50 [1] does the source give for `N#Cc1cncc([C@@H]2CCON2C(=O)C2CCN(c3nccc(C(N)=O)n3)CC2)n1` [Ex. 118] here?
**A.** 0.00761 µM

**Q.** Which IC50 [1] does the source give for `N#Cc1cncc([C@@H]2CCON2C(=O)C2CCN(c3nccc(Br)n3)CC2)c1` [Ex. 161] here?
**A.** 0.02 µM

**Q.** For `COc1cncc([C@@H]2CCON2C(=O)C2CCN(c3ncc(F)c(C(N)=O)n3)CC2)n1` [Ex. 177], which IC50 [1] is on record?
**A.** 0.00586 µM

**Q.** `N#Cc1nc([C@@H]2CCON2C(=O)C2CCN(c3nccc(C(N)=O)n3)CC2)cs1` [Ex. 188] was tested. Which IC50 [1] did it give?
**A.** 0.204 µM

**Q.** Which IC50 [2] does the source give for `CC(C)(C)OC(=O)N1CC[C@@H](C(=O)N2OCC[C@H]2c2cncc(F)c2)[C@@H](F)C1` [F, reference compound] here?
**A.** > 10 µM

**Q.** `N#Cc1ccc([C@@H]2CCON2C(=O)C2CCN(c3ncc(F)c(C#N)n3)CC2)nc1` [compound 112, 2-[4-[(3S)-3-(5-cyano-2-pyridyl)isoxazolidine-2-carbonyl]-1-piperidyl]-5-fluoro-pyrimidine-4-carbonitrile] was tested. Which IC50 [1] did it give?
**A.** 0.0755 µM

**Q.** With `COc1nc(N2CCC(C(=O)N3OCC[C@H]3c3ccc(C#N)cn3)CC2)ncc1F` [compound 117] as the molecule, how does the IC50 [1] read?
**A.** 0.0684 µM

**Q.** How did the IC50 [1] turn out when `N#Cc1cncc([C@@H]2CCON2C(=O)C2CCN(c3ncc(F)c(O)n3)CC2)c1` [compound 125, 5-[(3S)-2-[1-(5-fluoro-4-hydroxy-pyrimidin-2-yl)piperidine-4-carbonyl]isoxazolidin-3-yl]pyridine-3-carbonitrile] was run?
**A.** 8.65 µM

**Q.** `Cc1ccc([C@@H]2CCON2C(=O)C2CCN(c3cc(C#N)ncn3)CC2)cn1` [compound 128, (S)-6-(4-(3-(6-methylpyridin-3-yl)isoxazolidine-2-carbonyl)piperidin-1-yl)pyrimidine-4-carbonitrile] was tested. Which IC50 [1] did it give?
**A.** 0.224 µM

**Q.** `Cc1cncc([C@@H]2CCON2C(=O)C2CCN(c3nccc(C(N)=O)n3)CC2)c1` [compound 132, (S)-2-(4-(3-(5-methylpyridin-3-yl)isoxazolidine-2-carbonyl)piperidin-1-yl)pyrimidine-4-carboxamide] was tested. Which IC50 [1] did it give?
**A.** 0.0319 µM

**Q.** How did the IC50 [1] turn out when `Cc1ccc([C@@H]2CCON2C(=O)C2CCN(c3cc(C(N)=O)ncn3)CC2)cn1` [compound 135, (S)-6-(4-(3-(6-methylpyridin-3-yl)isoxazolidine-2-carbonyl)piperidin-1-yl)pyrimidine-4-carboxamide] was run?
**A.** 0.491 µM

**Q.** With `Cc1ncc([C@@H]2CCON2C(=O)C2CCN(c3nccc(C#N)n3)CC2)cc1F` [compound 136, (S)-2-(4-(3-(5-fluoro-6-methylpyridin-3-yl)isoxazolidine-2-carbonyl)piperidin-1-yl)pyrimidine-4-carbonitrile] as the molecule, how does the IC50 [1] read?
**A.** 0.0204 µM

**Q.** With `N#Cc1cncc([C@@H]2CCON2C(=O)C2CCN(c3ccnc(N)n3)CC2)c1` [compound 148, 5-[(3S)-2-[1-(2-aminopyrimidin-4-yl)piperidine-4-carbonyl]isoxazolidin-3-yl]pyridine-3-carbonitrile] as the molecule, how does the IC50 [1] read?
**A.** 2.21 µM

**Q.** With `O=C(C1CCN(c2ncnc(Cl)n2)CC1)N1OCC[C@H]1c1cnccn1` [compound 174, [1-(4-chloro-1,3,5-triazin-2-yl)-4-piperidyl]-[(3S)-3-pyrazin-2-ylisoxazolidin-2-yl]methanone] as the molecule, how does the IC50 [1] read?
**A.** 3.03 µM

**Q.** How did the IC50 [1] turn out when `COc1nc(Cl)nc(N2CCC(C(=O)N3OCC[C@H]3c3cnccn3)CC2)n1` [compound 181, [1-(4-chloro-6-methoxy-1,3,5-triazin-2-yl)-4-piperidyl]-[(3S)-3-pyrazin-2-ylisoxazolidin-2-yl]methanone] was run?
**A.** 0.0301 µM

**Q.** How did the IC50 [1] turn out when `Cc1ccc([C@@H]2CCON2C(=O)C2CCN(c3ncc(F)c(C(N)=O)n3)CC2)s1` [compound 183, 5-fluoro-2-[4-[(3S)-3-(5-methyl-2-thienyl)isoxazolidine-2-carbonyl]-1-piperidyl]pyrimidine-4-carboxamide] was run?
**A.** 0.000675 µM
